The values below come from PubChem BioAssay AID192 (DTP/NCI, 2004).

The subject of the assay is BDF1 mice, B16 melanoma ip, median survival T/C. As to the kind of experiment: NCI In Vivo Anticancer Drug Screen. Data for tumor model B16 Melanoma (intraperitoneal) in B6D2F1 (BDF1) mice. Particulars: endpoint: median survival time, higher = longer survival. A digest of the protocol:
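Each result divides a survival or tumor-size measurement in the compound-treated group by the same measurement in the vehicle group.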

Setting [1] is: dose: 0.5 mg/kg/injection, schedule: Q01DX009 (ip), vehicle: Klucel (hydroxypropylcellulose) (HPC).
[2] abbreviates: dose: 25.0 mg/kg/injection, schedule: Q01DX009 (ip), vehicle: Klucel (hydroxypropylcellulose) (HPC).
Setting [3] is: dose: 50.0 mg/kg/injection, schedule: Q01DX009 (ip), vehicle: Klucel (hydroxypropylcellulose) (HPC).
Setting [4] is: dose: 3.12 mg/kg/injection, schedule: Q01DX009 (ip), vehicle: Klucel (hydroxypropylcellulose) (HPC).
The mark [5] stands for this setting: dose: 6.25 mg/kg/injection, schedule: Q01DX009 (ip), vehicle: Klucel (hydroxypropylcellulose) (HPC).
Where [6] appears, read: dose: 12.5 mg/kg/injection, schedule: Q01DX009 (ip), vehicle: Klucel (hydroxypropylcellulose) (HPC).
The mark [7] stands for this setting: dose: 25.0 mg/kg/injection, schedule: Q01DX009 (ip), vehicle: saline with Tween-80.
Setting [8] is: dose: 50.0 mg/kg/injection, schedule: Q01DX009 (ip), vehicle: saline with Tween-80.
Setting [9] is: dose: 100.0 mg/kg/injection, schedule: Q01DX009 (ip), vehicle: Klucel (hydroxypropylcellulose) (HPC).
Setting [10] is: dose: 100.0 mg/kg/injection, schedule: Q01DX009 (ip), vehicle: saline with Tween-80.
Where [11] appears, read: dose: 25.0 mg/kg/injection, schedule: Q01DX009 (ip), vehicle: saline.
Where [12] appears, read: dose: 50.0 mg/kg/injection, schedule: Q01DX009 (ip), vehicle: saline.
Setting [13] is: dose: 100.0 mg/kg/injection, schedule: Q01DX009 (ip), vehicle: saline.
[14] abbreviates: dose: 200.0 mg/kg/injection, schedule: Q01DX009 (ip), vehicle: saline.
[15] abbreviates: dose: 12.5 mg/kg/injection, schedule: Q01DX009 (ip), vehicle: saline.
The mark [16] stands for this setting: dose: 200.0 mg/kg/injection, schedule: Q01DX009 (ip), vehicle: saline with Tween-80.
[17] abbreviates: dose: 400.0 mg/kg/injection, schedule: Q01DX009 (ip), vehicle: saline with Tween-80.

Several values for one entry are separate records, joined by “and”; a condition that tells them apart may be missing. Equal values may be shown once. Toxic doses and inconclusive results are not listed.

As for `COc1cccc(Cc2ccncc2)c1OC`, the T/C was 104 % of control (dose: 25.0 mg/kg/injection, schedule: Q01DX009 (ip), vehicle: water); 98 % of control (dose: 50.0 mg/kg/injection, schedule: Q01DX009 (ip), vehicle: water); 98 % of control (dose: 100.0 mg/kg/injection, schedule: Q01DX009 (ip), vehicle: water).

Turning to `C=C1C(=O)OCC2C(C(=O)O)=CC3C(C)C(C)=CC123` (centres undefined), the T/C (dose: 2.5 mg/kg/injection, schedule: Q01DX009 (ip), vehicle: Klucel (hydroxypropylcellulose) (HPC)) was 106 % of control; the T/C (dose: 3.12 mg/kg/injection, schedule: Q01DX009 (ip), vehicle: other) is 94 % of control; the T/C (dose: 5.0 mg/kg/injection, schedule: Q01DX009 (ip), vehicle: Klucel (hydroxypropylcellulose) (HPC)) is 98 % of control; the T/C (dose: 6.25 mg/kg/injection, schedule: Q01DX009 (ip), vehicle: other) is 101 % of control; the T/C (dose: 10.0 mg/kg/injection, schedule: Q01DX009 (ip), vehicle: Klucel (hydroxypropylcellulose) (HPC)) is 96 % of control; the T/C (dose: 12.5 mg/kg/injection, schedule: Q01DX009 (ip), vehicle: other) is 101 % of control. Moreover, the T/C was 98 % of control (dose: 20.0 mg/kg/injection, schedule: Q01DX009 (ip), vehicle: Klucel (hydroxypropylcellulose) (HPC)); 111 % of control (dose: 25.0 mg/kg/injection, schedule: Q01DX009 (ip), vehicle: other); 105 % of control (dose: 40.0 mg/kg/injection, schedule: Q01DX009 (ip), vehicle: Klucel (hydroxypropylcellulose) (HPC)).

With `COc1cc(OC)c2c(O)c3c(c(-c4ccc5cc6c(c(O)c5c4O)C(=O)CC(C)(O)C6)c2c1)CC(C)OC3C` (centres undefined), the T/C runs as follows: under setting [1], 94 % of control; (dose: 1.0 mg/kg/injection, schedule: Q01DX009 (ip), vehicle: Klucel (hydroxypropylcellulose) (HPC)) 102 % of control; (dose: 2.0 mg/kg/injection, schedule: Q01DX009 (ip), vehicle: Klucel (hydroxypropylcellulose) (HPC)) 111 % of control.

Take `Cc1cc(C)c(NC(=O)Nc2cccc3ccccc23)c(C)c1`: the T/C reads like this: under setting [2], 91 % of control; under setting [3], 95 % of control.

As for `CCc1c(CC(=O)O)c2cc(C)ccc2n1Cc1ccc(Cl)cc1`, the T/C runs as follows: under setting [4], 110 % of control and 119 % of control; under setting [5], 106 % of control and 114 % of control; under setting [6], 91 % of control and 111 % of control; under setting [2], 88 % of control and 106 % of control and 97 % of control; under setting [7], 97 % of control; under setting [3], 101 % of control and 104 % of control and 105 % of control. For the same compound, the T/C is, setting by setting: under setting [8], 97 % of control; (dose: 50.0 mg/kg/injection, schedule: Q04DX003 (ip), vehicle: saline with Tween-80) 104 % of control; under setting [9], 88 % of control and 95 % of control and 90 % of control; under setting [10], 88 % of control; (dose: 100.0 mg/kg/injection, schedule: Q04DX003 (ip), vehicle: saline with Tween-80) 88 % of control.

Turning to `O=C1c2c(O)cccc2-c2nn(CCNCCO)c3ccc(NCCNCCO)c1c23`, the T/C was 306 % of control (dose: 2.75 mg/kg/injection, schedule: Q01DX009 (ip), vehicle: water) and 306 % of control (dose: 5.5 mg/kg/injection, schedule: Q01DX009 (ip), vehicle: water).

As to `CC(=O)O[C@@H]1[C@@H](O)C2=C3[C@]4(C)[C@@H]1C(C)(C)C(=O)C[C@@H]4[C@]3(O)[C@H](OC(C)=O)[C@@]1(C[C@@H]1C)C2=O`, the T/C runs as follows: (dose: 1.0 mg/kg/injection, schedule: Q01DX009 (ip), vehicle: saline with Tween-80) 115 % of control; (dose: 2.0 mg/kg/injection, schedule: Q01DX009 (ip), vehicle: saline with Tween-80) 109 % of control; (dose: 3.12 mg/kg/injection, schedule: Q01DX009 (ip), vehicle: saline with Tween-80) 97 % of control and 101 % of control; (dose: 4.0 mg/kg/injection, schedule: Q01DX009 (ip), vehicle: saline with Tween-80) 102 % of control; (dose: 6.25 mg/kg/injection, schedule: Q01DX009 (ip), vehicle: saline with Tween-80) 104 % of control; (dose: 8.0 mg/kg/injection, schedule: Q01DX009 (ip), vehicle: saline with Tween-80) 114 % of control. For the same compound, the T/C was 119 % of control (dose: 12.5 mg/kg/injection, schedule: Q01DX009 (ip), vehicle: saline with Tween-80); 104 % of control under setting [7]; 101 % of control under setting [8].

As to `C1CCNCC1`, the T/C by setting is: under setting [11], 100 % of control; under setting [12], 102 % of control; under setting [13], 107 % of control; under setting [14], 102 % of control.

As for `CCC(C)C(C#N)(CCN(CC)CC)c1ccccc1` (centres undefined), the T/C by setting is: under setting [2], 121 % of control; under setting [3], 118 % of control; under setting [9], 109 % of control.

As for `CC1C2CCC3C(O)C2(CC(O)C2(O)C1CC(O)C2(C)C)CC3(C)O` (centres undefined), the T/C by setting is: (dose: 0.25 mg/kg/injection, schedule: Q01DX009 (ip), vehicle: Klucel (hydroxypropylcellulose) (HPC)) 103 % of control; under setting [1], 103 % of control.

As to `c1ccc(OP2OCCO2)cc1`, the T/C is, setting by setting: under setting [11], 88 % of control; under setting [12], 100 % of control; under setting [13], 105 % of control; under setting [14], 91 % of control.

Regarding `CCCCCCCCCCCC[N+](C)(C)C` (tested in a mixture with another compound), the T/C is 98 % of control (dose: 3.5 mg/kg/injection, schedule: Q01DX009 (ip), vehicle: saline); 86 % of control (dose: 7.0 mg/kg/injection, schedule: Q01DX009 (ip), vehicle: saline); 90 % of control (dose: 14.0 mg/kg/injection, schedule: Q01DX009 (ip), vehicle: saline).

Consider `ClCCCN1CCCCC1CCl` (centres undefined), for which the T/C (dose: 3.12 mg/kg/injection, schedule: Q01DX009 (ip), vehicle: saline) is 111 % of control; the T/C (dose: 3.12 mg/kg/injection, schedule: Q04DX003 (ip), vehicle: saline) was 105 % of control; the T/C (dose: 6.25 mg/kg/injection, schedule: Q04DX003 (ip), vehicle: saline) was 116 % of control; the T/C (dose: 8.33 mg/kg/injection, schedule: Q01DX009 (ip), vehicle: water) was 155 % of control and 159 % of control; the T/C under setting [15] is 176 % of control; the T/C (dose: 12.5 mg/kg/injection, schedule: Q01DX009 (ip), vehicle: water) is 185 % of control and 192 % of control.

As to `CC(C(=O)O)C(=O)O.[NH2-].[NH2-].[Pt+2]`, the T/C is 102 % of control (dose: 0.78 mg/kg/injection, schedule: Q01DX009 (ip), vehicle: Klucel (hydroxypropylcellulose) (HPC)); 109 % of control (dose: 1.56 mg/kg/injection, schedule: Q01DX009 (ip), vehicle: Klucel (hydroxypropylcellulose) (HPC)); 120 % of control under setting [4]; 156 % of control under setting [5]; 124 % of control (dose: 6.25 mg/kg/injection, schedule: Q01DX009 (ip), vehicle: saline); 175 % of control under setting [6]. The T/C is 160 % of control under setting [15]; 216 % of control under setting [2]; 175 % of control under setting [11]; 209 % of control under setting [12]; 202 % of control under setting [13].

With `CCCCCCCCCC(=O)OC(C)C(=O)N(CCCC)CCCC` (centres undefined), the T/C by setting is: under setting [7], 98 % of control; under setting [8], 97 % of control; under setting [10], 88 % of control.

For `CC(CCl)C(C#N)(c1ccccc1)c1ccccc1` (centres undefined), the T/C runs as follows: under setting [8], 93 % of control; under setting [10], 90 % of control; under setting [16], 102 % of control.

For the compound `NC(CC(=O)NC(=O)OCc1ccccc1)C(=O)O` (centres undefined), the T/C runs as follows: under setting [10], 100 % of control; under setting [16], 105 % of control; under setting [17], 110 % of control.

On to `CCOC(=O)C(C=O)(NC(=O)c1ccccc1)OCC` (centres undefined), for which the T/C by setting is: under setting [10], 102 % of control; under setting [16], 97 % of control; under setting [17], 100 % of control.
